In patent publication US8663646B2, “P53 peptide vaccine” (priority 2007, dated 2014):
pIC50: −log10 of the molar value. Where no end group is shown, it is not given here.

What was measured:
[1] = target: T1, HLA-A*0301 (Homo sapiens, UniProt P04439); experiment: Stability of peptide-HLA complex, binding at 4° C. and 20° C., HLA-A*0301; details: for HLA binding Stability (Table 5): HLA type A3; for Peptide Binding Stability: HLA-A*0301, IC50 at 20° C. vs 4° C.
T1 construct: B-cell lines used are: CAA (A*0101), EKR (A*0301), BVR (A*1101), VIJF (A*2401); endogenous in cells; host or cells: B-cell line EKR
Protocol: (§1) Stability of other peptide-HLA complexes was preferably determined as follows. […] Peptides of >50% of the initial complexes was lost within 2 hours were considered unstable. […] The rest was designated as unstable peptide binding.
(§2) Peptides 8-11 residues in length were selected based on typical anchor residues for HLA-A*0101, A*0301, A*1101 and HLA-A*2401 (Rammensee H G et al). The capacity of peptides to bind was tested in a competition based cellular binding assay as previously described (van der Burg S H et al 1995). FL-labeled reference peptides were synthesized as Cys-derivative (van der Burg S H et al 1995). Fluorescence labeled reference peptides used were: YLEPAC(FL)AK (SEQ ID NO: 87) (HLA-A*0101) and KVFPC(FL)ALINK (SEQ ID NO: 88) (HLA-A*1101) (Sette A et al), KVFPC(FL)ALINK (SEQ ID NO: 89) (HLAA*0301) (van der Burg S H et al 1995) and RYLKC(FL)QQLL (SEQ ID NO: 90) (A*2401) (Dai L C et al). B-cell lines used are: CAA (A*0101), EKR (A*0301), BVR (A*1101), VIJF (A*2401). The relative binding capacity of the peptides is expressed as the peptide concentration to inhibit 50% (1050) of the binding of the reference peptide. […] Peptide stabilization for HLA-A*0201 was performed as previously described (van der Burg S H et al, 1996). Peptides of >50% of the initial complexes was lost within 2 hours were considered unstable. Stability of other peptide-HLA complexes was determined as follows. Peptide binding was performed at 4° C. and 20° C. and 1050 were determined. […] The rest was designated as unstable peptide binding.

[2] = target: T2, HLA-A*1101 (Homo sapiens, UniProt P04439, A114D/D185E/E176A/F33Y/L180Q/S129P/T187R); experiment: Stability of peptide-HLA complex, binding at 4° C. and 20° C., HLA-A*1101; details: for Peptide Binding Stability: HLA-A*1101, IC50 at 20° C. vs 4° C.; for HLA binding Stability (Table 5): HLA type A11
T2 construct: B-cell lines used are: CAA (A*0101), EKR (A*0301), BVR (A*1101), VIJF (A*2401); endogenous in cells; host or cells: B-cell line BVR
Protocol: as §1, §2

[3] = target: T1, HLA-A*0301; experiment: Competition based cellular binding assay, HLA-A*0301 (B-cell line EKR); details: for HLA binding Affinity (Table 5): HLA type A3; for pIC50: read-out: Peptide Binding Affinity

Compound	HLA binding Stability (Table 5) [1]	Peptide Binding Stability [1]	Peptide Binding Stability [2]	HLA binding Affinity (Table 5) [3]	Peptide Binding Affinity ([3]; HLA-A*0301, IC50 category)	pIC50 ([3]; HLA-A*0301, IC50 category)	HLA binding Stability (Table 5) [2]
CC[C@H](C)[C@H](NC(=O)[C@H](C)NC(=O)[C@H](CCSC)NC(=O)[C@H](C)NC(=O)[C@H](CCCNC(=N)N)NC(=O)[C@@H](NC(=O)[C@H](CCCNC(=N)N)NC(=O)[C@@H](NC(=O)CN)[C@@H](C)O)C(C)C)C(=O)N[C@@H](Cc1ccc(O)cc1)C(=O)N[C@@H](CCCCN)C(=O)O [p53 154-164]	+ (Stable peptides displayed IC50 at 20 °C that deviated <2 times of the IC50 at 4° C.)	+ (Stable peptides displayed IC50 at 20 °C that deviated <2 times of the IC50 at 4° C.)					
CC(C)C[C@H](NC(=O)[C@H](C)NC(=O)[C@@H]1CCCN1C(=O)[C@H](CO)NC(=O)[C@H](Cc1ccc(O)cc1)NC(=O)[C@@H](NC(=O)[C@@H](N)CS)[C@@H](C)O)C(=O)N[C@@H](CC(N)=O)C(=O)N[C@@H](CCCCN)C(=O)O [p53 124-132]		+ (Stable peptides displayed IC50 at 20 °C that deviated <2 times of the IC50 at 4° C.)	+ (Stable peptides displayed IC50 at 20 °C that deviated <2 times of the IC50 at 4° C.)				
GSRAHSSHLK [p53 361-370]	+ (Stable peptides displayed IC50 at 20 °C that deviated <2 times of the IC50 at 4° C.)	+ (Stable peptides displayed IC50 at 20 °C that deviated <2 times of the IC50 at 4° C.)		high	high		
CSCC[C@H](NC(=O)[C@H](CC(C)C)NC(=O)[C@H](CCCCN)NC(=O)[C@H](CCCCN)NC(=O)[C@H](Cc1c[nH]cn1)NC(=O)[C@H](CCCNC(=N)N)NC(=O)[C@H](CO)NC(=O)[C@@H](NC(=O)[C@@H](N)CO)[C@@H](C)O)C(=O)N[C@@H](Cc1ccccc1)C(=O)N[C@@H](CCCCN)C(=O)O [p53 376-386]	− (The rest was designated as unstable peptide binding.)	+/− (Peptides that displayed IC50 at 20 °C of more than twice the IC50 at 4 °C but IC50 < 15 μM were considered to bind with intermediate stability.)					
CC(C)C[C@H](NC(=O)[C@H](Cc1c[nH]cn1)NC(=O)[C@H](CO)NC(=O)[C@H](CO)NC(=O)[C@H](Cc1c[nH]cn1)NC(=O)[C@H](C)NC(=O)[C@@H](N)CCCNC(=N)N)C(=O)N[C@@H](CCCCN)C(=O)N[C@@H](CO)C(=O)N[C@@H](CCCCN)C(=O)N[C@@H](CCCCN)C(=O)O [p53 363-373]	+ (Stable peptides displayed IC50 at 20 °C that deviated <2 times of the IC50 at 4° C.)	+ (Stable peptides displayed IC50 at 20 °C that deviated <2 times of the IC50 at 4° C.)					
CC(C)C[C@H](NC(=O)[C@H](C)NC(=O)[C@@H]1CCCN1C(=O)[C@H](CO)NC(=O)[C@H](Cc1ccc(O)cc1)NC(=O)[C@@H](NC(=O)[C@H](CS)NC(=O)[C@@H](NC(=O)[C@@H](N)C(C)C)[C@@H](C)O)[C@@H](C)O)C(=O)N[C@@H](CC(N)=O)C(=O)N[C@@H](CCCCN)C(=O)O [p53 122-132]		+ (Stable peptides displayed IC50 at 20 °C that deviated <2 times of the IC50 at 4° C.)				4.82 to 5.30	
C[C@@H](O)[C@H](NC(=O)[C@@H](N)CCCCN)C(=O)N[C@@H](Cc1ccc(O)cc1)C(=O)N[C@@H](CCC(N)=O)C(=O)NCC(=O)N[C@@H](CO)C(=O)N[C@@H](Cc1ccc(O)cc1)C(=O)NCC(=O)N[C@@H](Cc1ccccc1)C(=O)N[C@@H](CCCNC(=N)N)C(=O)O [p53 101-110]	+/− (Peptides that displayed IC50 at 20 °C of more than twice the IC50 at 4 °C but IC50 < 15 μM were considered to bind with intermediate stability.)	+/− (Peptides that displayed IC50 at 20 °C of more than twice the IC50 at 4 °C but IC50 < 15 μM were considered to bind with intermediate stability.)	+/− (Peptides that displayed IC50 at 20 °C of more than twice the IC50 at 4 °C but IC50 < 15 μM were considered to bind with intermediate stability.)				+/− (Peptides that displayed IC50 at 20 °C of more than twice the IC50 at 4 °C but IC50 < 15 μM were considered to bind with intermediate stability.)
CC[C@H](C)[C@H](NC(=O)[C@H](C)NC(=O)[C@H](CCSC)NC(=O)[C@H](C)NC(=O)[C@H](CCCNC(=N)N)NC(=O)[C@@H](NC(=O)[C@@H](N)CCCNC(=N)N)C(C)C)C(=O)N[C@@H](Cc1ccc(O)cc1)C(=O)N[C@@H](CCCCN)C(=O)O [p53 156-164]	+ (Stable peptides displayed IC50 at 20 °C that deviated <2 times of the IC50 at 4° C.)	+ (Stable peptides displayed IC50 at 20 °C that deviated <2 times of the IC50 at 4° C.)	+ (Stable peptides displayed IC50 at 20 °C that deviated <2 times of the IC50 at 4° C.)				+ (Stable peptides displayed IC50 at 20 °C that deviated <2 times of the IC50 at 4° C.)
RAHSSHLKSK [p53 363-372]	− (The rest was designated as unstable peptide binding.)	+/− (Peptides that displayed IC50 at 20 °C of more than twice the IC50 at 4 °C but IC50 < 15 μM were considered to bind with intermediate stability.)		int		4.82 to 5.30	
RVRAMAIY [p53 156-163]	− (The rest was designated as unstable peptide binding.)	− (The rest was designated as unstable peptide binding.)		int		4.82 to 5.30	
CC[C@H](C)[C@H](NC(=O)[C@H](C)NC(=O)[C@H](CCSC)NC(=O)[C@H](C)NC(=O)[C@H](CCCNC(=N)N)NC(=O)[C@@H](NC(=O)[C@H](CCCNC(=N)N)NC(=O)[C@@H](NC(=O)CN)[C@@H](C)O)C(C)C)C(=O)N[C@@H](Cc1ccc(O)cc1)C(=O)O [p53 154-163]	− (The rest was designated as unstable peptide binding.)	− (The rest was designated as unstable peptide binding.)					
GGSRAHSSHLK [p53 360-370]	− (The rest was designated as unstable peptide binding.)	− (The rest was designated as unstable peptide binding.)		int		4.82 to 5.30	
CC(C)[C@H](N)C(=O)N[C@H](C(=O)N[C@@H](CCCNC(=N)N)C(=O)N[C@@H](CCCNC(=N)N)C(=O)N[C@@H](CS)C(=O)N1CCC[C@H]1C(=O)N[C@@H](Cc1c[nH]cn1)C(=O)N[C@@H](Cc1c[nH]cn1)C(=O)N[C@@H](CCC(=O)O)C(=O)N[C@@H](CCCNC(=N)N)C(=O)O)C(C)C [p53 172-181]	+ (Stable peptides displayed IC50 at 20 °C that deviated <2 times of the IC50 at 4° C.)	+ (Stable peptides displayed IC50 at 20 °C that deviated <2 times of the IC50 at 4° C.)					
